This is an account of results in ChEMBL document CHEMBL5653615 (J Biol Chem, 2013).

SMILES strings stand for the structures.

For experiment [1], the target named is T1, NUAK family SNF1-like kinase 1 (Homo sapiens) (UniProt O60285).
T1 sequence (whole entry): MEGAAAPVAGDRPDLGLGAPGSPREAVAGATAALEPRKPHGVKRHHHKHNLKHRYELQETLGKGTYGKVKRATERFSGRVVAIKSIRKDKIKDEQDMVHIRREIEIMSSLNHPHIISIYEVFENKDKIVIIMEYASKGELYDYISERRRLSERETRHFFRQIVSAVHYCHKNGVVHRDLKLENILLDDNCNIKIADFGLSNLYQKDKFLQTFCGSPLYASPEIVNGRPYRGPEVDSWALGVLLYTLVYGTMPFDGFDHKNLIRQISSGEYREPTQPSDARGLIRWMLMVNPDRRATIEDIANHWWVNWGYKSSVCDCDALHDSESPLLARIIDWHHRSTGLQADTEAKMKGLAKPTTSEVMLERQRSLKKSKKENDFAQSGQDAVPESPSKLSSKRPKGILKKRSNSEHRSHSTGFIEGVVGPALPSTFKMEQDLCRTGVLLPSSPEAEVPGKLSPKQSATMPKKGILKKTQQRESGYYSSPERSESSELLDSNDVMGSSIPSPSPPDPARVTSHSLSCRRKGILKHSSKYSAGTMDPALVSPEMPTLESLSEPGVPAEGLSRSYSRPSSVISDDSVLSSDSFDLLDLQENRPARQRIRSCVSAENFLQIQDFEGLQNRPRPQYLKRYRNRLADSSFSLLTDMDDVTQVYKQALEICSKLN
The experiment can be described thus: Inhibition of human ARK5 at 18.6 nM by HotSpot assay relative to control.

The target of experiment [2] is Cyclin-dependent kinase 5/CDK5 activator 1 (Homo sapiens) (UniProt Q00535+Q15078). The experiment can be described thus: Inhibition of human CDK5/p25 at 18.6 nM by HotSpot assay relative to control. It counts as protein-complex assay.
Experiment [3] has as its target Mitogen-activated protein kinase kinase kinase 8 (Homo sapiens) (UniProt P41279). The experiment can be described thus: Inhibition of human COT1 at 18.6 nM by HotSpot assay relative to control.
Experiment [4] has as its target Tyrosine-protein kinase Lck (Homo sapiens) (UniProt P06239). Briefly: Inhibition of human LCK at 18.6 nM by HotSpot assay relative to control.
Experiment [5] deals with MAP kinase-interacting serine/threonine-protein kinase 1 (Homo sapiens) (UniProt Q9BUB5). The experiment can be described thus: Inhibition of human MNK1 at 18.6 nM by HotSpot assay relative to control.
Experiment [6] has as its target Insulin-like growth factor 1 receptor (Homo sapiens, UniProt P08069). Particulars: dose 18.6 nM.
Description: Inhibition of human IGF1R at 18.6 nM by HotSpot assay relative to control
For experiment [7], the target named is Aurora kinase B (Homo sapiens) (UniProt Q96GD4). The experiment can be described thus: Inhibition of human Aurora B at 1.82 nM by HotSpot assay relative to control.
Experiment [8] addresses Receptor tyrosine-protein kinase erbB-4 (Homo sapiens) (UniProt Q15303). Briefly: Inhibition of human ERBB4 at 1.82 nM by HotSpot assay relative to control.
Experiment [9] deals with T2, Tyrosine-protein kinase ITK/TSK (Homo sapiens) (UniProt Q08881).
T2 sequence (whole entry): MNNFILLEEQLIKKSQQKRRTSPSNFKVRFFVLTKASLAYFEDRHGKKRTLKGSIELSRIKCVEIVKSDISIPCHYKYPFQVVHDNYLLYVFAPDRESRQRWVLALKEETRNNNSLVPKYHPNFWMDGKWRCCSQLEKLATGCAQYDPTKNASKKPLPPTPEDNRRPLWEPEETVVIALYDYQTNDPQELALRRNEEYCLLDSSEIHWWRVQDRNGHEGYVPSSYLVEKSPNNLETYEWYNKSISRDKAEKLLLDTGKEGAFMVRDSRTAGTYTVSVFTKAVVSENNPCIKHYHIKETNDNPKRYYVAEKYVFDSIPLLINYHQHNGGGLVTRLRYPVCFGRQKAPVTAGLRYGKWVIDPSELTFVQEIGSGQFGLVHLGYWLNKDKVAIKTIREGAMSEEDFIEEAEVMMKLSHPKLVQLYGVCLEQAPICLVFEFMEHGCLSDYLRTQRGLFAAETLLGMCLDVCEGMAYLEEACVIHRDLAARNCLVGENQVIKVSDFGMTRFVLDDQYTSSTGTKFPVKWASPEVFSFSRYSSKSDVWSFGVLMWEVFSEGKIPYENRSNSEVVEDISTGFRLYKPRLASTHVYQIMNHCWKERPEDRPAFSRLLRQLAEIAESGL
The experiment can be described thus: Inhibition of human ITK at 1.82 nM by HotSpot assay relative to control.

Experiment [10] concerns the target Mitogen-activated protein kinase 14 (Homo sapiens) (UniProt Q16539). The experiment can be described thus: Inhibition of human MAPK14 at 1.82 nM by HotSpot assay relative to control.
Experiment [11] deals with Platelet-derived growth factor receptor alpha (Homo sapiens) (UniProt P16234). The experiment can be described thus: Inhibition of human PDGFRa at 1.82 nM by HotSpot assay relative to control.
In experiment [12] the target is T3, NUAK family SNF1-like kinase 2 (Homo sapiens) (UniProt Q9H093).
T3 sequence (whole entry): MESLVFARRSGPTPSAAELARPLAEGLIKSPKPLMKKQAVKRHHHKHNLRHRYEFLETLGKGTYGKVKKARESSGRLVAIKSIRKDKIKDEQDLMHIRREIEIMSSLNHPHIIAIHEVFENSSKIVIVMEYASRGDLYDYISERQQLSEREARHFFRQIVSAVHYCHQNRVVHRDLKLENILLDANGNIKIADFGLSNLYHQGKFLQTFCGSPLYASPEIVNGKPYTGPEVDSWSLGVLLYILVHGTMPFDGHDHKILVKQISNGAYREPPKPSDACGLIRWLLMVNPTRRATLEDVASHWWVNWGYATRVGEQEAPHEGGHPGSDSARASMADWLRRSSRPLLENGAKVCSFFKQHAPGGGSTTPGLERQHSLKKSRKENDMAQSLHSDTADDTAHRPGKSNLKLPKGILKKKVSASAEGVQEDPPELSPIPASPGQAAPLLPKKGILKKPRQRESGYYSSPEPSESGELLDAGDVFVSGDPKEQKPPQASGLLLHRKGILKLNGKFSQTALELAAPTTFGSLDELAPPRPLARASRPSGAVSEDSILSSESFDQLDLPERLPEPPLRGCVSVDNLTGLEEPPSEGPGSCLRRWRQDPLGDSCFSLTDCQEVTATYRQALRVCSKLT
Briefly: Inhibition of human NUAK2 at 1.82 nM by HotSpot assay relative to control.

Experiment [13] has as its target BDNF/NT-3 growth factors receptor (Homo sapiens) (UniProt Q16620). Briefly: Inhibition of human TRKB at 1.82 nM by HotSpot assay relative to control.

Sequence of Mitogen-activated protein kinase 14 (Homo sapiens) (Q16539 whole entry): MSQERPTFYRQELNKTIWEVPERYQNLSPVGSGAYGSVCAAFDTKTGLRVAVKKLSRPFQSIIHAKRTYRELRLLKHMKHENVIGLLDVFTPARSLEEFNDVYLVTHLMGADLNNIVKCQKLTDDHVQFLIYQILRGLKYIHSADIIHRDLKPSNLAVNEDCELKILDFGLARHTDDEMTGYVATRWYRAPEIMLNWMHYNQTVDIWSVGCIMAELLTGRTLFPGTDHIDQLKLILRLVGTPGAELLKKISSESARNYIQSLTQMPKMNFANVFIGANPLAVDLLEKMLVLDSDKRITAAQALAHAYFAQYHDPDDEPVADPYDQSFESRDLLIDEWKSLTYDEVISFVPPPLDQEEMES
Sequence of Mitogen-activated protein kinase kinase kinase 8 (Homo sapiens) (P41279 whole entry): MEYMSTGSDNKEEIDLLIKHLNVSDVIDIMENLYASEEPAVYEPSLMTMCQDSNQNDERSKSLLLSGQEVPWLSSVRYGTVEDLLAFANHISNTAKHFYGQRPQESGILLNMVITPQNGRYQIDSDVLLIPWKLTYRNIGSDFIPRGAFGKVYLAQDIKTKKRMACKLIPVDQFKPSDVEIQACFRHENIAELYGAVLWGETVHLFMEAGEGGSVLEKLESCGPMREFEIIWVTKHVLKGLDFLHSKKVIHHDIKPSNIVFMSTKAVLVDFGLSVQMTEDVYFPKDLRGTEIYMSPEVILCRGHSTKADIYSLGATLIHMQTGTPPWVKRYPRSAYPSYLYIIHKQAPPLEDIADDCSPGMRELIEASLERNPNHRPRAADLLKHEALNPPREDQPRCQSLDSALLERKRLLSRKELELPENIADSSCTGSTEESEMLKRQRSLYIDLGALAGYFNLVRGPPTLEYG
Sequence of BDNF/NT-3 growth factors receptor (Homo sapiens) (Q16620 32-822 limits assumed): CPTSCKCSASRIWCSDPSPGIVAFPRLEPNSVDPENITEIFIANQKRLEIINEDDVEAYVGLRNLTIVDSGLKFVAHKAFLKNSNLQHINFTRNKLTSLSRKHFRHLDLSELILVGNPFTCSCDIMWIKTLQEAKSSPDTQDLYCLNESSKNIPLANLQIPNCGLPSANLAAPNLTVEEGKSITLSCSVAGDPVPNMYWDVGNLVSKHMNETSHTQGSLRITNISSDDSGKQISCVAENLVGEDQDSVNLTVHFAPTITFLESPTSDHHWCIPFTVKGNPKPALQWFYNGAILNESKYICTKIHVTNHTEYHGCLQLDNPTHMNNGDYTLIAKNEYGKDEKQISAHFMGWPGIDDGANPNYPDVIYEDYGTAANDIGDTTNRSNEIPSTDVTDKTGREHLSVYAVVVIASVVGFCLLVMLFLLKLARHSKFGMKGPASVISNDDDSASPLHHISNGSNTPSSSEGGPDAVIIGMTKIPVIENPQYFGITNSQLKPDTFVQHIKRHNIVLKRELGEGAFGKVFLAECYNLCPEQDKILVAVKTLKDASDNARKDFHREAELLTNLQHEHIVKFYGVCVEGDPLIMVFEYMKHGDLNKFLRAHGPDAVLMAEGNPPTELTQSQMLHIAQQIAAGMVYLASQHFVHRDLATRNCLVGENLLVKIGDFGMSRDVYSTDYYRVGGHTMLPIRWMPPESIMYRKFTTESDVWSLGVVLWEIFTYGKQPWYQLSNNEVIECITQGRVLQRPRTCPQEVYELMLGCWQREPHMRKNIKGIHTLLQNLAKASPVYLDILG
Sequence of MAP kinase-interacting serine/threonine-protein kinase 1 (Homo sapiens) (Q9BUB5 whole entry, looked up): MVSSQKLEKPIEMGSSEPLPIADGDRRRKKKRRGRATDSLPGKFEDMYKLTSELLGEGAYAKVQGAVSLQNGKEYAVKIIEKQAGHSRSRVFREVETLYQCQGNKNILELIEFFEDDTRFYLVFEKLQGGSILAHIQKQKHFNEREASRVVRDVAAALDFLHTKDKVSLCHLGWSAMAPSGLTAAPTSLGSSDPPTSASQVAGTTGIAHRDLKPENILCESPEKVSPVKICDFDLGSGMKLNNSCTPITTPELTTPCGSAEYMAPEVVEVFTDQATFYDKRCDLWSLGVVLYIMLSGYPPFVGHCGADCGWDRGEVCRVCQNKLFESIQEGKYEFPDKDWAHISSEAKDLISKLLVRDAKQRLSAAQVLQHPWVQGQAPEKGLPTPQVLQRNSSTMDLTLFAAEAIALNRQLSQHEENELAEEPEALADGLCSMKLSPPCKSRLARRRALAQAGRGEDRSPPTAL
Sequence of Platelet-derived growth factor receptor alpha (Homo sapiens) (P16234 whole entry): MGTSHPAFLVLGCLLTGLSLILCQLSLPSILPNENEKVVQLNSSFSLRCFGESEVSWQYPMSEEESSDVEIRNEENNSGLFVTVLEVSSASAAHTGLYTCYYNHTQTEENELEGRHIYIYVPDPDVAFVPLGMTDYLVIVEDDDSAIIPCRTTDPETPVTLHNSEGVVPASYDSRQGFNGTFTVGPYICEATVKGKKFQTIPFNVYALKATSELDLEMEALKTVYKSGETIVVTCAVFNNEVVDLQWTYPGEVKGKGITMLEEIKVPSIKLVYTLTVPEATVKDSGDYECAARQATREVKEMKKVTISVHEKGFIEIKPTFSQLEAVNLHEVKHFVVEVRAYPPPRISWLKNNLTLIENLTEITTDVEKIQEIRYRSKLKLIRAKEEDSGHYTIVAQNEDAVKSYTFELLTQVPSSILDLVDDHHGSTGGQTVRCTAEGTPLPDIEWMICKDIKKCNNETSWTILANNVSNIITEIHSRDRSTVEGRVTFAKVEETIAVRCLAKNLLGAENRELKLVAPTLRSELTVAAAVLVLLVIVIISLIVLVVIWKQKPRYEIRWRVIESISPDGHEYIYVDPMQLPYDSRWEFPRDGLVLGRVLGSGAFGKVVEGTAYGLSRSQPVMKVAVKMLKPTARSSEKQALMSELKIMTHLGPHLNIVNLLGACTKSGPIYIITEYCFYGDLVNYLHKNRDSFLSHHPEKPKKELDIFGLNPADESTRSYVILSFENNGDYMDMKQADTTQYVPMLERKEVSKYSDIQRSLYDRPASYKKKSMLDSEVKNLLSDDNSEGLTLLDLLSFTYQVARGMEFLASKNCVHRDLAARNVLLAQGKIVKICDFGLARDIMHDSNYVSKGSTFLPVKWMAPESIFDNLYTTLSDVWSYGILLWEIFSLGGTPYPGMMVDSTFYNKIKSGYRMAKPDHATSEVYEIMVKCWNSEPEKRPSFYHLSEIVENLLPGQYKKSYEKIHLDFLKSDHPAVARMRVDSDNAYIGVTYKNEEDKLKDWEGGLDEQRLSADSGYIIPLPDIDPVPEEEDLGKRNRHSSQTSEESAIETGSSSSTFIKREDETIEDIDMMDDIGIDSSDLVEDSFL
Sequence of Cyclin-dependent kinase 5/CDK5 activator 1 (Homo sapiens) (Q00535 whole entry): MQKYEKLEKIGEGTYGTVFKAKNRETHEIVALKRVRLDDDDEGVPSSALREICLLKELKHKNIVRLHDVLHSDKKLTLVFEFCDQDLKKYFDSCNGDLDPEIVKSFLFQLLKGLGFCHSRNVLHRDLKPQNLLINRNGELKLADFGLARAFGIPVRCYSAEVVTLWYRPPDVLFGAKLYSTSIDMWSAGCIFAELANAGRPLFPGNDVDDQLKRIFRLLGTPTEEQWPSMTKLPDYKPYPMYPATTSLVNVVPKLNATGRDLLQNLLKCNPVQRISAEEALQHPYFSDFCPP
Sequence of Cyclin-dependent kinase 5/CDK5 activator 1 (Homo sapiens) (Q15078 99-307 partner limits assumed): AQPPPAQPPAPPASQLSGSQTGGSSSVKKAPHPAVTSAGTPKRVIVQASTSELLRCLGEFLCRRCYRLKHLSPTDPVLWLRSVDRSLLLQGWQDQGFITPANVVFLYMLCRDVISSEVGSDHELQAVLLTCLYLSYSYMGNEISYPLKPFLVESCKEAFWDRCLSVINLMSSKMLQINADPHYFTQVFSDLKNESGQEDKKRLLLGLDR
Sequence of Insulin-like growth factor 1 receptor (P08069 31-736 limits assumed): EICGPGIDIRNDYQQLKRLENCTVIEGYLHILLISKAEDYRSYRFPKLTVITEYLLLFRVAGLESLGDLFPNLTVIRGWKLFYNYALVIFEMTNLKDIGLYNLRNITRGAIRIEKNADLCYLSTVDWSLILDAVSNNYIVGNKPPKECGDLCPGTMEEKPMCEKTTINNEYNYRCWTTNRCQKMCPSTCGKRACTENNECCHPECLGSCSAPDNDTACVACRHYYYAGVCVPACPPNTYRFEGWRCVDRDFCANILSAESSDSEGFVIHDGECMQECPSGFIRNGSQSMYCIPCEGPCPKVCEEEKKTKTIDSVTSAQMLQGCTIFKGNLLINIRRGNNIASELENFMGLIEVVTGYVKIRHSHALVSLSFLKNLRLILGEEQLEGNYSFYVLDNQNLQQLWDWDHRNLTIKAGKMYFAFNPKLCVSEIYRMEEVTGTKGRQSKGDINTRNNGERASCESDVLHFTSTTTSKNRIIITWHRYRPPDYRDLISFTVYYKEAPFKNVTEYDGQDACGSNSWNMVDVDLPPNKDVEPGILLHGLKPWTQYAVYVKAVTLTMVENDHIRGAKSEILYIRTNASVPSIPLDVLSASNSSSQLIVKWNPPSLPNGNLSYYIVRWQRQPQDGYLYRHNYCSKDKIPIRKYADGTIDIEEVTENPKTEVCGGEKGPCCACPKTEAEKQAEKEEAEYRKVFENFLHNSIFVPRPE
Sequence of Insulin-like growth factor 1 receptor (P08069 741-1367 limits assumed): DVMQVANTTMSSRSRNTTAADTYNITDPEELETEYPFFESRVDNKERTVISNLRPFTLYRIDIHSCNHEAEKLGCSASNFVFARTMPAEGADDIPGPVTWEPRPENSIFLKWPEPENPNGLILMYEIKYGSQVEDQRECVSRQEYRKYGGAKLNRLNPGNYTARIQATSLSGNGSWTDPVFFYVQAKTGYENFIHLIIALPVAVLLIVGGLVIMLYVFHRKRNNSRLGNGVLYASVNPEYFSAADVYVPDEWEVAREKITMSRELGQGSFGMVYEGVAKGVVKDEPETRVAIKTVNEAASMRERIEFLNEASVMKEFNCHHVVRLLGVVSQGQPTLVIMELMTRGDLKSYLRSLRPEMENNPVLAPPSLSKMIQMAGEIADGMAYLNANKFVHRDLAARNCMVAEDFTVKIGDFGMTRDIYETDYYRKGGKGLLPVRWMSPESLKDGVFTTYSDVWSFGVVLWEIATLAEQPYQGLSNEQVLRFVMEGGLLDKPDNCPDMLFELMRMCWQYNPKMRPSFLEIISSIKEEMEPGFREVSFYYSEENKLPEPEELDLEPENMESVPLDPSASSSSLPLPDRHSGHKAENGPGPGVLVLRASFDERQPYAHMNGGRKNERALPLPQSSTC

As to `C[C@]1(O)C[C@@H](c2nc(-c3ccc4ccc(-c5ccccc5)nc4c3)c3c(N)nccn32)C1`, the inhibition in experiment [1] is -1.57%; in experiment [2] it was 4.12%; in experiment [3], 4.92%; in experiment [4] it was 6.33%; in experiment [5] it was 0.3%; in [6], 66.3%.
Take `C[C@@]1(C(=O)Nc2ccc(F)nc2)CCCN1c1nc(Nc2cc(C3CC3)n[nH]2)c2cccn2n1`: the inhibition was -0.68% in experiment [7]; 3.49% in [8]; -7.19% in [9]; -2.94% in experiment [10]; 0.58% in [11]; 8.18% in experiment [12]. Moreover, the inhibition in experiment [13] was found to be 69.6%.

The term inhibition denotes the change of the read-out against control, counted positive when it falls.
